Measurements taken from ChEMBL document CHEMBL3045070, “Identification of in vitro inhibitors of Mycobacterium tuberculosis Lysine -aminotransferase by pharmacophore mapping and three-dimensional flexible searches” (Med Chem Res, 2008).
Calls of active or inactive are those of the source. The rule behind the calls is not given here.

Assays:
[1] = target: T1, L-lysine-epsilon aminotransferase (Mycobacterium tuberculosis) (UniProt P9WQ77); test: Inhibition of Mycobacterium tuberculosis lysine-epsilon aminotransferase at 600 uM
T1 sequence (whole entry): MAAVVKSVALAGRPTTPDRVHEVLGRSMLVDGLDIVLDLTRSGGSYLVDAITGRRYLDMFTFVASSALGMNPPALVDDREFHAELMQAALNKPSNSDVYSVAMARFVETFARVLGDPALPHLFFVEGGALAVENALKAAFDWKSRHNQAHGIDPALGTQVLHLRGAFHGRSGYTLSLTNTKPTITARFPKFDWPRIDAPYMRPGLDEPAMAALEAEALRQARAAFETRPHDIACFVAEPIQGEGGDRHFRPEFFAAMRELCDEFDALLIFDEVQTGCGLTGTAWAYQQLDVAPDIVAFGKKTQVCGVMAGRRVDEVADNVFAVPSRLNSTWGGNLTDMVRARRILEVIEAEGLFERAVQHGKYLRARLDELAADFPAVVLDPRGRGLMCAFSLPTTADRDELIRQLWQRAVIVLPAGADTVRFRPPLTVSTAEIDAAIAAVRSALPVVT

[2] = target: T1, L-lysine-epsilon aminotransferase (Mycobacterium tuberculosis); test: Inhibition of Mycobacterium tuberculosis lysine-epsilon aminotransferase at 400 uM

COc1ccc(CC(=O)NCC2c3[nH]c4ccccc4c3CC3C(=O)N(CCc4ccc(OC)c(OC)c4)C(=O)N32)cc1 (configuration not stated)
inhibition [1]: 60%

CN(CC(O)c1ccccc1)CC1CCCCN1C (configuration not stated)
inhibition [2]: Active
